Where a name gives a salt, the structure may show the parent alone. Read-outs that look alike come from different tables or passages of the source.
Experiments:
Botrytis cinerea = details: in vivo
Phytophthora infestans = type: in vivo; details: foliar application at 1200 ppm or root uptake from treated soil containing 20 ppm
[1] = tested on: wheat leaf rust, Puccinia recondita; assay: whole plant or invertebrate; type: in vivo; details: foliar; for pest or weed control at 280.212 g/ha: read-out: % Control (without rain), foliar, 0.25 lb.; for pest or weed control at 1120.85 g/ha: read-out: % Control (without rain), foliar, 1 lb.
[2] = tested on: rice blast, Piricularia oryzae; type: in vivo; details: foliar application, 1200 ppm
[3] = tested on: wheat leaf rust, Puccinia recondita; assay: whole plant or invertebrate; type: in vivo; details: foliar; for pest or weed control at 280.212 g/ha: read-out: % Control (with 1" of rain), foliar, 0.25 lb., 1" of rain; for pest or weed control at 1120.85 g/ha: read-out: % Control (with 1" of rain), foliar, 1 lb., 1" of rain
[4] = tested on: wheat leaf rust, Puccinia recondita; assay: Foliar systemic activity on leaf rust; type: in vivo
Description: Another type of systemic test was run in which pots of approximately 5 inch high wheat plants were sprayed with varying concentrations of the test compound. Thirty-six hours later they were sprayed six minutes in a rain machine which amounted to about one inch of normal rainfall. The plants were then placed in a greenhouse for 7 days and then inoculated with a spore suspension of wheat leaf rust, Puccinia recondita. About 7 days later lesion counts were made on ten leaves representing the sprayed leaves and new growth from each replicate and compared with similar pots of wheat plants which were untreated with a chemical and the percent disease control determined. Disease control on the new growth is a measure of systemic activity. The commercial product known by the trademarked name Plantvax, which is 2,3-dihydro-5-carboxanilido-6-methyl-1,4-oxathiin-4,4-dioxide, was used as a standard.

[5] = tested on: leaf rust on spring wheat; assay: Systemic field test, leaf rust on spring wheat; type: in vivo; details: 36 days after treatment
[6] = tested on: wheat leaf rust, Puccinia recondita; type: in vivo
[7] = tested on: leaf rust on winter wheat; assay: Systemic field test, leaf rust on winter wheat; type: in vivo; details: 46 days after application, untreated 1109

| Compound | pest or weed control at 280.212 g/ha [1] [%] | pest or weed control at 1120.85 g/ha [1] [%] | pest or weed control at 280.212 g/ha [3] [%] | pest or weed control at 1120.85 g/ha [3] [%] | % Rust Control, New growth ([4]; 1/2 lb./100 gal.) [%] | % Rust Control, Sprayed Leaf ([4]; 1/2 lb./100 gal.) [%] | % Rust Control, New growth ([4]; 1/6 lb./100 gal.) [%] | % Rust Control, Sprayed Leaf ([4]; 1/6 lb./100 gal.) [%] | % Rust Control, New growth ([4]; 1/12 lb./100 gal.) [%] | % Rust Control, Sprayed Leaf ([4]; 1/12 lb./100 gal.) [%] | % Systemic Wheat Leaf Rust Control ([6]; 2.5 ppm in soil) [%] | % Systemic Wheat Leaf Rust Control ([6]; 5 ppm in soil) [%] | % Systemic Wheat Leaf Rust Control ([6]; 10 ppm in soil) [%] | also measured |
| --- | --- | --- | --- | --- | --- | --- | --- | --- | --- | --- | --- | --- | --- | --- |
| 4-(2-ethylhexyl)-1,2,4-triazole [Example 11] | – | – | – | – | – | – | – | – | – | – | – | – | – | control of Botrytis cinerea on broad bean (Botrytis cinerea): 50-85% |
| CCCCCCCCn1cnnc1 [Example 10, 4-n-octyl-1,2,4-triazole] | – | – | – | – | – | – | – | – | – | – | – | – | – | control of Phytophthora infestans (Phytophthora infestans): good control |
| CCCCCCCCCCCCn1cnnc1 [Example 13, 4-n-dodecyl-1,2,4-triazole] | 20 | 60 | 0 | 30 | – | – | – | – | – | – | – | – | – | control of rice blast, Piricularia oryzae [2]: 95-100% |
| OCCCn1cnnc1 [Example 18, 4-(3-hydroxypropyl)-1,2,4-triazole] | 0 | 0 | 0 | 0 | – | – | – | – | – | – | – | – | – | control of Phytophthora infestans (Phytophthora infestans): good control |
| CCOCCn1cnnc1 [Example 24, 4-(2-ethoxyethyl)-1,2,4-triazole] | 80 | 95 | 50 | 95 | – | – | – | – | – | – | – | – | – | control of Phytophthora infestans (Phytophthora infestans): good control |
| c1ccc(OCCn2cnnc2)cc1 [Example 25, 4-(2-phenoxyethyl)-1,2,4-triazole] | 0 | 0 | 0 | 0 | – | – | – | – | – | – | – | – | – | control of Phytophthora infestans (Phytophthora infestans): good control |
| CCOCCCn1cnnc1 [Example 47] | 80 | 80 | 30 | 55 | – | – | – | – | – | – | – | – | – | control of Phytophthora infestans (Phytophthora infestans): good control |
| CCCCn1cnnc1S [Example 76, 3-mercapto-4-n-butyl-1,2,4-triazole] | 100 | 100 | 100 | 100 | 90 | 97 | 77 | 88 | 75 | 80 | 83 | 97 | 100 | % Leaves infected ([5]; 0.5 lbs./acre): 23%; % Leaves infected ([5]; 1 lbs./acre): 10%; % Leaves infected ([5]; 2 lbs./acre): 4%; No. of lesions/800 leaves ([7]; 0.5 lbs./acre): 453 lesions/800 leaves; No. of lesions/800 leaves ([7]; 1 lbs./acre): 239 lesions/800 leaves; No. of lesions/800 leaves ([7]; 2 lbs./acre): 89 lesions/800 leaves |
| CCCCn1c(S)nnc1C(=O)O [Example 94, 3-mercapto-4-n-butyl-5-carboxy-1,2,4-triazole] | 100 | 100 | 82 | 83 | 86 | 99 | 73 | 91 | 61 | 71 | 95 | 99 | 100 | % Leaves infected ([5]; 0.5 lbs./acre): 35%; % Leaves infected ([5]; 1 lbs./acre): 17%; % Leaves infected ([5]; 2 lbs./acre): 7% |
| CCCCn1c(S)nnc1C(=O)OCC [Example 97] | 100 | 100 | 100 | 100 | 54 | 86 | 75 | 73 | 67 | 81 | 93 | 95 | 100 | – |
| CCCCn1c(SC(=O)NC)nnc1C(=O)O [Example 99, 3-methylcarbamoylmercapto-4-n-butyl 5-carboxy-1,2,4-triazole] | 99 | 99 | 100 | 100 | 82 | 69 | 69 | 74 | 56 | 81 | 96 | 99 | 100 | – |
| CCCCn1c(SC(=O)NC)nnc1C(=O)O [Example 100, triethanolamine salt of 3 methyl-carbamoylmercapto-4-n-butyl-5-carboxy-1,2,4-triazole] | – | – | – | – | 79 | 79 | 63 | 79 | 54 | 57 | 89 | 99 | 99 | % Control (without rain) ([1]; 0.25 lb.): 100%; % Control (without rain) ([1]; 1 lb.): 100%; % Control (with 1" of rain) ([3]; 0.25 lb.): 100%; % Control (with 1" of rain) ([3]; 1 lb.): 100% |
| CCCCn1cnnc1SCCOCC [Example 107, 3-(2-ethoxyethylmercapto)-4-n-butyl-1,2,4-triazole] | 100 | 100 | 100 | 100 | 61 | 73 | 23 | 27 | 17 | 25 | 52 | 85 | 89 | – |
| CCCCn1cnnc1SCC(N)=O [Example 111, 3-carbamoylmethylmercapto-4-n butyl-1,2,4-triazole] | 100 | 100 | 93 | 100 | 88 | 88 | 59 | 51 | 38 | 49 | 76 | 91 | 92 | – |
| CCCCn1cnnc1SC(=O)NC [Example 114, 3-methylcarbamoylmercapto-4-n-butyl-1,2,4-triazole] | 100 | 100 | 100 | 100 | 98 | 96 | 79 | 83 | 67 | 68 | 96 | 100 | 100 | – |
| CCCCn1cnnc1Sc1ccc([N+](=O)[O-])cc1[N+](=O)[O-] [Example 127, 3-(2,4-dinitrophenylmercapto)-4-n-butyl-1,2,4-triazole] | 100 | 100 | – | 100 | 81 | 98 | 69 | 93 | 57 | 81 | 67 | 94 | 100 | – |
| CC1=C(C(=O)Nc2ccccc2)S(=O)(=O)CCO1 [Plantvax, 2,3-dihydro-5-carboxanilido-6-methyl-1,4-oxathiin-4,4-dioxide, reference compound] | – | – | – | – | 38 | 49 | 32 | 37 | – | 3 | – | – | – | % Leaves infected ([5]; 0.5 lbs./acre): 79%; % Leaves infected ([5]; 1 lbs./acre): 78%; % Leaves infected ([5]; 2 lbs./acre): 75%; No. of lesions/800 leaves ([7]; 0.5 lbs./acre): 1113 lesions/800 leaves; No. of lesions/800 leaves ([7]; 1 lbs./acre): 1017 lesions/800 leaves; No. of lesions/800 leaves ([7]; 2 lbs./acre): 690 lesions/800 leaves |
